From US7649013B2, “Methods of protecting against radiation injury” (priority 2003, dated 2010)

Tested on: C57BL/6J inbred strain female mice
Assay: Survival after 8 Gy whole body γ-irradiation, oral 200 mg/kg at varying time points before (Example 6)
Type: in vivo
Details: for No. of animals surviving at 20 days post-irradiation: 10 animals; for Death rate (%): 20 days
Procedure: β-lapachone is prepared at 10 mg/ml in 40% hydroxypropyl-beta-cyclodextrin (HPBCD).
C57BL/6J inbred strain female mice (4-5 weeks old) are used. Animals are maintained in a climate-controlled animal facility.
β-lapachone (200 mg/kg body weight) is orally administered to animals at either 0.5 hour, 1 hour, 2 hours, 4 hours or 6 hours before irradiation.
Whole body irradiation of animals with 8 Gy of γ-rays is carried out in air at room temperature in a gamma chamber (Gammacell 40 Exactor), at a dose-rate of 1.05 Gy/min. This radiation dose is within the range of equivalent human exposures predicted in many scenarios of radiologic or nuclear terrorist attack. […]
Group III: β-lapachone (200 mg/kg body weight) is orally administered to mice 6 hours before radiation.
Group IV: β-lapachone (200 mg/kg body weight) is orally administered to mice 4 hours before radiation.
Group V: β-lapachone (200 mg/kg body weight) is orally administered to mice 2 hours before radiation.
Group VI: β-lapachone (200 mg/kg body weight) is orally administered to mice 1 hour before radiation.
Group VII: β-lapachone (200 mg/kg body weight) is orally administered to mice 0.5 hour before radiation.
Animals are irradiated with 8 Gy at 1.05 Gy/min dose-rate. After irradiation mice are returned to their cage and observed on a regular basis. Exposure to γ-rays causes lethality in animals. Importantly, treatment with β-lapachone, especially at a level of 200 mg/kg orally at one hour prior to irradiation, diminishes the death rate.

[1] = 200 mg/kg p.o. 0.5 hr before Radiation 8 Gy
[2] = 200 mg/kg p.o. 1 hr before Radiation 8 Gy
[3] = 200 mg/kg p.o. 2 hr before Radiation 8 Gy
[4] = 200 mg/kg p.o. 4 hr before Radiation 8 Gy
[5] = 200 mg/kg p.o. 6 hr before Radiation 8 Gy

CC1(C)CCC2=C(O1)c1ccccc1C(=O)C2=O [β-lapachone, 3,4-dihydro-2,2-dimethyl-2H-naphtho[1,2-b]pyran-5,6-dione]
Median survival time [1]: 10 days | No. of animals surviving at 20 days post-irradiation [1]: 0 | Death rate (%) [1]: 100% | Survival of the treated mice at day 50 post irradiation (FIG. 7) (200 mg/kg p.o. 1 hour prior to 8 Gy): more than 30% | Median survival time [2]: 18 days | No. of animals surviving at 20 days post-irradiation [2]: 3 | Death rate (%) [2]: 70% | Median survival time [3]: 10 days | No. of animals surviving at 20 days post-irradiation [3]: 0 | Death rate (%) [3]: 100% | Median survival time [4]: 14 days | No. of animals surviving at 20 days post-irradiation [4]: 0 | Death rate (%) [4]: 100% | Median survival time [5]: 18 days | No. of animals surviving at 20 days post-irradiation [5]: 1 | Death rate (%) [5]: 90%
